From patent US20090255006A1, “Transgenic Zebrafish” (University of Georgia Research Foundation, Inc., priority 2008, published 2009)
“Also recorded” adds a separate entry of the source. Read-outs that look alike come from different tables or passages of the source.

Assays:
sqt and cyc transcripts = assay: Targeted injection of morpholinos into the YSL, morphology of live embryos; assay type: in vivo, zebrafish; details: 8 ng MO into YSL at 3 hpf
Protocol: Wild-type embryos were obtained from natural crosses of Wik fish. Collected embryos were maintained at 28.5° C. and staged according to morphological criteria (Kimmel et al., Dev. Dyn., 203:253-310 (1995). Translation blocking morpholinos against sqt and cyc have been described previously (Feldman and Stemple, Genesis, 30: 175-177 (2001); Karlen and Rebagliati, Genesis, 30: 126-128 (2001). The MO sequences are as follows: sqtMO: 5′-[…]-3′ (SEQ ID NO:1); sqtMIS: ATcTgAAAATgAAGcTAATAATgCAC-3′ (SEQ ID NO:2); cycMO: 5′-[…]-3′ (SEQ ID NO:3); cycMIS: 5′-GCcACTgCGAaGTGTGgTcAT-3′(SEQ ID NO:4). Nucleotides in lower case represent mismatches. The sqtMOs were tagged with lissamine, while the cycMOs were tagged with fluorescein. Embryos were injected with each MO at 3 hpf soon after formation of the YSL. The distribution of the MO in the YSL was verified 2 h after injection. Embryos with mislocalized MOs were removed from the experiments.
To test if sqt and cyc are required in the YSL, their function in this tissue was specifically knocked down by targeted injection of antisense morpholinos (MOs) directed against sqt and cyc transcripts. […] When cyc function alone is depleted from the YSL, all embryos have normal shields (100%, N=36) (FIG. 5E, arrow). At 24 hpf, the cyc-depleted embryos, are indistinguishable from embryos injected with control MOs (100%, N=22) (FIG. 5F). When sqt function is depleted from the YSL, by contrast, the majority of embryos lack the embryonic shield ([…], N=11) (FIG. 5G).

Nodal receptors [1] = details: cited from earlier work
Nodal receptors [2] = assay: Block of Nodal signaling with SB-505124 in Tg-SqtapGFPi embryos, gfp in situ hybridization; assay type: in vivo, zebrafish; details: 50 μM

In the case of “sqtMO: translation blocking morpholino against sqt, 5′-ATGTCAAATCAAGGTAATAATCCAC-3′ (SEQ ID NO:1), tagged with lissamine (all phosphorodiamidate morpholino (PMO); lissamine tag, position not given here)”, the “embryos lacking the embryonic shield” value (sqt and cyc transcripts; 6 hpf) was 54% and the “embryos displaying mild cyclopia” value (sqt and cyc transcripts; 24 hpf) was 16%.

In the case of “cycMO: translation blocking morpholino against cyc, 5′-GCGACTCCGAGCGTGTGCATGATG-3′ (SEQ ID NO:3), tagged with fluorescein (all phosphorodiamidate morpholino (PMO); fluorescein tag, position not given here)”, the “embryos with normal shields” value (sqt and cyc transcripts; 6 hpf) was 100% and the “embryos indistinguishable from embryos injected with control MOs” value (sqt and cyc transcripts; 24 hpf) was 100%.

In the case of `Cc1cccc(-c2[nH]c(C(C)(C)C)nc2-c2ccc3c(c2)OCO3)n1` [SB-505124], the “phenotype of treated embryos” value (Nodal receptors [1]; 50 μM, added to embryos at 3 hpf or earlier) is given as “sufficient to phenocopy embryos lacking nodal-related gene function”, the “phenotype of treated embryos” value (Nodal receptors [1]; later treatments, or lower doses) is given as “milder phenotypes” and the “gfp expression in the EVL” value (Nodal receptors [2]) is given as “reduced, but not eliminated; also recorded: reduced to a greater extent”. For the same molecule, the “gfp expression in the YSL” value (Nodal receptors [2]) was “consistently reduced, but not completely eliminated; also recorded: persists”, the “gfp expression in the blastomeres” value (Nodal receptors [2]) was “eliminated; also recorded: reduced to a greater extent” and the “overall levels of gfp expression” value (Nodal receptors [2]) was “reduced”.
